Test results: patent publication US7560567B2, “2-pyridinylethylbenzamide derivatives” (Bayer Cropscience S.A., priority 2003, dated 2009)

Columns and labels:
Alternaria brassicae = experiment: In vivo test on Alternaria brassicae (leaf spot of crucifers), radish plants, preventive spray; conditions: for pest or weed control at 330 ppm: Alternaria brassicae, radish plants (Pernot), treated 24 h before contamination, grading 6 to 7 days after contamination vs control plants, read-out: protection (good, at least 50%, to total); for effectiveness on Alternaria brassicae: 330 ppm, comparison compounds of WO 01/11965
Description: (§1) The active ingredient tested is prepared by potter homogenisation in a concentrated suspension type formulation at 100 g/l. This suspension is then diluted with water to obtain the desired active material concentration.
Radish plants (Pernot variety) in starter cups, sown on a 50/50 peat soil-pozzolana substrate and grown at 18-20° C., are treated at the cotyledon stage by spraying with the aqueous suspension described above.
Plants, used as controls, are treated with an aqueous solution not containing the active material.
After 24 hours, the plants are contaminated by spraying them with an aqueous suspension of Alternaria brassicae spores (40,000 spores per cm^3). The spores are collected from a 12-13-day-old culture.
The contaminated radish plants are incubated for 6-7 days at about 18° C., under a humid atmosphere.
Grading is carried out 6 to 7 days after the contamination, in comparison with the control plants.

Pyrenophora teres = experiment: In vivo test on Pyrenophora teres (barley net blotch), barley plants, preventive spray; conditions: 288 h, barley plants (Express), treated 24 h before contamination, grading 12 days after contamination vs control plants, read-out: protection (good, at least 50%, to total)
Description: as §1
(§2) Barley plants (Express variety) in starter cups, sown on a 50/50 peat soil-pozzolana substrate and grown at 12° C., are treated at the 1-leaf stage (10 cm tall) by spraying with the aqueous suspension described above. Plants, used as controls, are treated with an aqueous solution not containing the active material.
After 24 hours, the plants are contaminated by spraying them with an aqueous suspension of Pyrenophora teres spores (12,000 spores per ml). The spores are collected from a 12-day-old culture. The contaminated barley plants are incubated for 24 hours at about 20° C. and at 100% relative humidity, and then for 12 days at 80% relative humidity.
Grading is carried out 12 days after the contamination, in comparison with the control plants.

Botrytis cinerea = experiment: In vivo test on Botrytis cinerea (gherkin grey mould), gherkin plants, preventive spray; conditions: 330 ppm; comparison compounds of WO 01/11965
Description: as §1
as §2, with “Gherkin” for “Barley”, “(Petit Vert de Paris” for “(Express”, “18-20°” for “12°”, “cotyledon Z11” for “1-leaf”, “stage” for “stage (10 cm tall)”
After 24 hours, the plants are contaminated by depositing drops of an aqueous suspension of Botrytis cinerea spores (150,000 spores per ml) on upper surface of the leaves. The spores are collected from a 15-day-old culture and are suspended in a nutrient solution composed of: • 20 g/L of gelatin • 50 g/L of cane sugar • 2 g/L of NH4NO3 • 1 g/L of KH2PO4
The contaminated gherkin plants are settled for 5/7 days in a climatic room at 15-11° C. (day/night) and at 80% relative humidity.
Grading is carried out 5/7 days after the contamination, in comparison with the control plants. Under these conditions, good (at least 50%) or total protection is observed at a dose of 330 ppm with the following compounds: 38 and 57.

SMILES	pest or weed control at 330 ppm (Alternaria brassicae)	pest or weed control at 330 ppm (Pyrenophora teres)	effectiveness on Botrytis cinerea (Botrytis cinerea)	effectiveness on Alternaria brassicae (Alternaria brassicae)
CC(CNC(=O)c1cc(Cl)ccc1Cl)c1ncc(C(F)(F)F)cc1Cl (stereo not drawn) [Compound 3]	≥ 50%	–	–	–
COc1ccccc1C(=O)NCC(C)c1ncc(C(F)(F)F)cc1Cl (stereo not drawn) [Compound 4]	≥ 50%	–	–	–
Cc1ccccc1C(=O)NCC(C)c1ncc(C(F)(F)F)cc1Cl (stereo not drawn) [Compound 7]	≥ 50%	≥ 50%	–	–
Cc1cccc(C(=O)NCC(C)c2ncc(C(F)(F)F)cc2Cl)c1C (stereo not drawn) [Compound 8]	≥ 50%	≥ 50%	–	–
Cc1ccc(C(=O)NCC(C)c2ncc(C(F)(F)F)cc2Cl)c(C)c1 (stereo not drawn) [Compound 9]	≥ 50%	≥ 50%	–	–
Cc1ccc(C)c(C(=O)NCC(C)c2ncc(C(F)(F)F)cc2Cl)c1 (stereo not drawn) [Compound 10]	≥ 50%	≥ 50%	–	–
CC(CNC(=O)c1cccc(Cl)c1F)c1ncc(C(F)(F)F)cc1Cl (stereo not drawn) [Compound 11]	≥ 50%	–	–	–
Cc1c(Cl)cccc1C(=O)NCC(C)c1ncc(C(F)(F)F)cc1Cl (stereo not drawn) [Compound 12]	≥ 50%	–	–	–
Cc1c(F)cccc1C(=O)NCC(C)c1ncc(C(F)(F)F)cc1Cl (stereo not drawn) [Compound 13]	≥ 50%	≥ 50%	–	–
Cc1c(O)cccc1C(=O)NCC(C)c1ncc(C(F)(F)F)cc1Cl (stereo not drawn) [Compound 15]	≥ 50%	–	–	–
CCC(CNC(=O)c1cccc(OC)c1OC)c1ncc(C(F)(F)F)cc1Cl (stereo not drawn) [Compound 21]	≥ 50%	–	–	–
CCC(CNC(=O)c1ccccc1C)c1ncc(C(F)(F)F)cc1Cl (stereo not drawn) [Compound 23]	≥ 50%	–	–	–
CCC(CNC(=O)c1ccc(C)cc1C)c1ncc(C(F)(F)F)cc1Cl (stereo not drawn) [Compound 25]	≥ 50%	–	–	–
CCC(CNC(=O)c1cccc(O)c1C)c1ncc(C(F)(F)F)cc1Cl (stereo not drawn) [Compound 30]	–	≥ 50%	–	–
CC(CNC(=O)c1ccccc1C(F)(F)F)c1ncc(C(F)(F)F)cc1Cl (stereo not drawn) [Compound 32]	≥ 50%	≥ 50%	–	–
CC(C)(CNC(=O)c1ccccc1C(F)(F)F)c1ncc(C(F)(F)F)cc1Cl [Compound 33]	≥ 50%	≥ 50%	–	–
CCCC(CCC)(CNC(=O)c1ccccc1C(F)(F)F)c1ncc(C(F)(F)F)cc1Cl [Compound 35]	≥ 50%	–	–	–
CCCC(CCC)(CNC(=O)c1ccccc1I)c1ncc(C(F)(F)F)cc1Cl [Compound 36]	≥ 50%	–	–	–
CC(Cc1ncc(C(F)(F)F)cc1Cl)NC(=O)c1ccccc1C(F)(F)F (stereo not drawn) [Compound 38]	≥ 50%	≥ 50%	–	–
CCC(CNC(=O)c1ccccc1C(F)(F)F)c1ncc(C(F)(F)F)cc1Cl (stereo not drawn) [Compound 39, N-{2-[3-chloro-5-(trifluoromethyl)-2-Pyridinyl]butyl}-2-(trifluoromethyl)benzamide]	–	≥ 50%	–	–
CCC(CNC(=O)c1ccccc1Br)c1ncc(C(F)(F)F)cc1Cl (stereo not drawn) [Compound 40]	–	≥ 50%	–	–

SMILES	pest or weed control at 330 ppm (Alternaria brassicae)	pest or weed control at 330 ppm (Pyrenophora teres)	effectiveness on Botrytis cinerea (Botrytis cinerea)	effectiveness on Alternaria brassicae (Alternaria brassicae)
CCC(CNC(=O)c1ccccc1C(F)F)c1ncc(C(F)(F)F)cc1Cl (stereo not drawn) [Compound 41]	–	≥ 50%	–	–
CCCC(CNC(=O)c1ccccc1C(F)(F)F)c1ncc(C(F)(F)F)cc1Cl (stereo not drawn) [Compound 42]	≥ 50%	–	–	–
CCCC(CNC(=O)c1ccccc1Br)c1ncc(C(F)(F)F)cc1Cl (stereo not drawn) [Compound 43]	≥ 50%	≥ 50%	–	–
CCCC(CNC(=O)c1ccccc1C(F)F)c1ncc(C(F)(F)F)cc1Cl (stereo not drawn) [Compound 44]	–	≥ 50%	–	–
CCC(Cc1ncc(C(F)(F)F)cc1Cl)NC(=O)c1ccccc1C(F)(F)F (stereo not drawn) [Compound 47, N-(1-{[3-chloro-5-(trifluoromethyl)-2-Pyridinyl]methyl}propyl)-2-(trifluoromethyl)benzamide]	≥ 50%	≥ 50%	–	–
CC(NC(=O)c1ccccc1C(F)(F)F)C(C)c1ncc(C(F)(F)F)cc1Cl (stereo not drawn) [Compound 58]	≥ 50%	≥ 50%	–	–
CC(NC(=O)c1ccccc1I)C(C)c1ncc(C(F)(F)F)cc1Cl (stereo not drawn) [Compound 59]	≥ 50%	≥ 50%	–	–
CC(Cc1ccc(C(F)(F)F)c(Cl)n1)NC(=O)c1ccccc1C(F)(F)F (stereo not drawn) [Compound 61]	–	≥ 50%	–	–
CC(CNC(=O)c1ccccc1C(F)(F)F)c1ccc(C(F)(F)F)c(Cl)n1 (stereo not drawn) [Compound 62]	≥ 50%	≥ 50%	–	–
CC(CNC(=O)c1ccccc1I)c1ccc(C(F)(F)F)c(Cl)n1 (stereo not drawn) [Compound 63]	≥ 50%	≥ 50%	–	–
CC(CNC(=O)c1ccccc1Br)c1ccc(C(F)(F)F)c(Cl)n1 (stereo not drawn) [Compound 64]	≥ 50%	≥ 50%	–	–
CC(CNC(=O)c1ccccc1C(F)(F)F)c1ccc(C(F)(F)F)cn1 (stereo not drawn) [Compound 66]	≥ 50%	≥ 50%	–	–
CC(CNC(=O)c1ccccc1I)c1ccc(C(F)(F)F)cn1 (stereo not drawn) [Compound 67]	≥ 50%	≥ 50%	–	–
CCNC(=O)C(Cc1ncc(C(F)(F)F)cc1Cl)NC(=O)c1ccccc1 (stereo not drawn) [compound 304, N-{1-ethylcarbamoyl-2-[3-chloro-5-(trifluoromethyl)-2-pyridinyl]-ethyl}-benzamide]	–	–	zero	–
CCNC(=O)C(Cc1ncc(C(F)(F)F)cc1Cl)NC(=O)c1ccc(Cl)cc1 (stereo not drawn) [compound 306, N-{1-ethylcarbamoyl-2-[3-chloro-5-(trifluoromethyl)-2-pyridinyl]ethyl}-4-chlorobenzamide]	–	–	zero	–
CCNC(=O)C(Cc1ncc(C(F)(F)F)cc1Cl)NC(=O)c1cccc([N+](=O)[O-])c1 (stereo not drawn) [compound 307, N-{1-ethylcarbamoyl-2-[3-chloro-5-(trifluoromethyl)-2-pyridinyl]ethyl}-3-nitrobenzamide, reference compound]	–	–	zero	poor
CCNC(=O)C(Cc1ncc(C(F)(F)F)cc1Cl)NC(=O)c1ccccc1Br (stereo not drawn) [compound 310, N-{1-ethylcarbamoyl-2-[3-chloro-5-(trifluoromethyl)-2-pyridinyl]ethyl}-2-bromobenzamide]	–	–	zero	–
CNC(=O)C(Cc1ncc(C(F)(F)F)cc1Cl)NC(=O)c1ccccc1 (stereo not drawn) [compound 314, N-{1-methylcarbamoyl-2-[3-chloro-5-(trifluoromethyl)-2-pyridinyl]ethyl}-benzamide]	–	–	zero	–
CNC(=O)C(Cc1ncc(C(F)(F)F)cc1Cl)NC(=O)c1ccc(OC)cc1 (stereo not drawn) [compound 315, N-{1-methylcarbamoyl-2-[3-chloro-5-(trifluoromethyl)-2-pyridinyl]ethyl}-4-methoxybenzamide]	–	–	zero	–
CNC(=O)C(Cc1ncc(C(F)(F)F)cc1Cl)NC(=O)c1ccc(-c2ccccc2)cc1 (stereo not drawn) [compound 316, N-{1-methylcarbamoyl-2-[3-chloro-5-(trifluoromethyl)-2-pyridinyl]-ethyl}-4-phenylbenzamide, reference compound]	–	–	zero	poor
